Measured values from patent publication US6451332B1, “Pesticidal composition having high pesticidal ingredient vaporization rate method for controlling pests, and method for producing a pesticidal composition” (Sumitomo Chemical Company, Limited, priority 1997, dated 2002).

How the values were obtained:
[1] = Vaporization rate of the pesticidal ingredient (silica gel trap, acetone extraction, gas chromatography); format: physicochemical; conditions: 10 g composition heated with 100 g calcium oxide and water; air sucked at 30 L/min for 5 min
Method: Pesticidal devices were prepared in the same method as test examples 5 and 8, and had water poured to the calcium oxide. After the reaction of calcium oxide with water started, the pesticidal device was replaced to a glass funnel with a lid. The vaporizing pesticidal ingredient was then trapped to silica gel in glass column connected to the funnel by sucking air at 30 L/min for 5 m in. Subsequently, the pesticidal ingredient present in the silica gel was extracted with acetone. The vaporization rate for the pesticidal ingredient was then measured by the quantitative analysis of gas chromatography.
A pesticidal device was prepared by placing:
1) 10 g of the pesticidal composition obtained in example 2 was placed interior to the separating wall of the container presented in FIG. 1 and
2) 100 g of calcium oxide with 1-20 mesh was placed exterior to the said separating wall but within the said container. The acquired pesticidal device was then tested for the vaporization rate by utilizing the procedure recited in test example 10.

[2] = Japanese Laid-open patent No. sho-53-109945A, table 2, sample #23; cited from earlier work

SMILES | vaporization rate for the pesticidal ingredient [1] | vaporization rate [2]
COC(=O)c1cc(Cl)ccc1NS(=O)(=O)C(F)(F)F [2-methoxycarbonyl-4-chlorotrifluoromethanesulfonanilide] | 78.5% | –
CC(C)=CC1C(C(=O)OCN2C(=O)C3=C(CCCC3)C2=O)C1(C)C (stereo not drawn) [tetramethrin] | 88.1% | 63.0%
